Measured values published in US6479653B1, “Compositions and method for regulation of transcription” (ARIAD Gene Therapeutics, Inc., priority 1997, dated 2002).
“Also recorded” adds a separate entry of the source.

B1: RMTSV: VP16 activation domain fused to RMTS (FRB-minimal lac repressor tetramerization domain-p65) (protein)
chain: EMWHEGLEEASRLYFGERNVKGMFEVLEPLHAMMERGPQTLKETSFNQAYGRDLMEAQEWCRKYMKSGNVKDLTQAWDLYYHVFRRISKVKRKTTLAPNTQTASPRALADSLMQLARQVSRLESGQDEFPTMVFPSGQISQASALAPAPPQVLPQAPAPAPAPAMVSALAQAPAPVPVLAPGPPQAVAPPAPKPTQAGEGTLSEALLQLQFDDEDLGALLGNSTDPAVFTDLASVDNSEFQQLLNQGIPVAPHTTEPMLMEYPEAITRLVTGAQRPPDPAPAPLGAPGLPNGLLSGDEDFSSIADMDFSALLSQISSLGDELHLDGEDVAMAHADALDDFDLDMLGDGDSPGPGFTPHDSAPYGALDMADFEFEQMFTDALGIDEYGG
modifications: left off: small tags and cut ends

Legend:
reporter gene = assay: Transcription assay of p65 activation domain mutants; assay type: cell-based; conditions: for potency of p65 activation domain to induce the reporter gene, relative to wild type: mutated p65 activation domain
Description: Thus, in one embodiment of this invention, mutations are introduced into the activation domain by standard techniques known in the art, such as site-directed PCR based mutagenesis. In this embodiment, one to five, in some cases one to three, alterations in peptide sequence can be introduced into the DNA coding for the activation domain. Each of these mutations either alone or in combination with one or more other mutations may be readily assayed for its ability to induce the transcription of either transiently transfected or stably integrated target reporter gene constructs. For instance, a construct encoding a fusion protein containing multiple copies of the modified sequence and a DNA binding domain can be introduced into cells and the activity of the encoded fusion protein measured in transcription assays (with a responsive reporter gene construct) and compared to analogous fusion proteins containing wild-type activation domain sequence or a different mutation of interest.
The foregoing is illustrated in the case of the p65 transcription activation domains. Constructs are prepared encoding fusion proteins containing one or more p65 transcription activation domains and a DNA binding domain. The p65 domains may be wild-type (as a control) or may contain any of a variety of alterations in peptide sequence. These mutations can generally be introduced into a variety of p65-derived transcription activation domains. For example, M1 mutations can be introduced into plasmids carrying p65 activation domain coding regions between amino acids 533 and 550, or 361 and 550, or 280 and 550.
Exemplary mutations for p65 transcription activation domains include those intended to increase the potency of the p65 activation domain (including the M1, M2, M6, M7 and M8 mutations) and those intended to decrease the potency (generally slightly) of the activation domain. […] Mutations of the M4 and M5 class change the conserved serine and proline residues between amino-acids 361 and 450. […] In GST pull down assays, the region of the M4 and M5 mutations interacts with TFIIA. […] Thus, mutations for the practitioner to bear in mind include, but are not limited to, the following: […]

[1] = system: GAL4 responsive reporter gene; assay: Rapamycin-induced expression of stably integrated GAL4-responsive SEAP reporter in transfected HT1080 B cells; assay type: cell-based

Row | Molecule | potency of p65 activation domain to induce the reporter gene, relative to wild type (reporter gene) | expression of target genes when fused to other acidic type activation domains (reporter gene) | other results
1 | 529-GDEDASSIADMDASALLSQI (SEQ ID NO:9) [F 533 and F 541 to alanine residues] | half of wild type level |  | 
2 | CO[C@H]1C[C@@H]2CC[C@@H](C)[C@@](O)(O2)C(=O)C(=O)N2CCCC[C@H]2C(=O)O[C@H]([C@H](C)C[C@@H]2CC[C@@H](O)[C@H](OC)C2)CC(=O)[C@H](C)/C=C(\C)[C@@H](O)[C@@H](OC)C(=O)[C@H](C)C[C@H](C)/C=C/C=C/C=C/1C [rapamycin, reference compound] |  |  | rapamycin concentration giving peak levels of reporter gene expression ([1]; GF4 with RS, RMTS or RMTSV): 10 nM
3 | 377-GALALGAGGQVL(SEQ ID NO:11) [M4] | very small effect | synergistically | 
4 | 401-GALAQAGAGVG (SEQ ID NO:13) [M5] | very small effect | synergistically | 
5 | B1 |  |  | reporter gene expression at 1 nM rapamycin ([1]; GF4 DNA binding receptor, 1 nM rapamycin in the medium): induced the reporter gene expression robustly; reporter gene expression at the lowest level of activation domains expressed ([1]; fixed amount of GF4, 10 nM rapamycin): robust activation of reporter gene expression; also recorded: exceeded the level stimulated by the highest amount of RS fusion proteins
